Literature values as cited in patent publication US7001916B1, “Epothilon derivatives, method for the production and the use thereof as pharmaceuticals” (priority 1999, dated 2006).

System: P-glycoprotein-forming multiresistant tumor lines
Conditions: in comparison to taxol

Compound	activity against P-glycoprotein-forming multiresistant tumor lines
C/C(=C\c1csc(C)n1)[C@@H]1C[C@@H]2O[C@]2(C)CCC[C@H](C)[C@H](O)[C@@H](C)C(=O)C(C)(C)[C@@H](O)CC(=O)O1 [Epothilone B, epothilone B]	significantly higher activity
C/C(=C\c1csc(C)n1)[C@@H]1C[C@@H]2O[C@@H]2CCC[C@H](C)[C@H](O)[C@@H](C)C(=O)C(C)(C)[C@@H](O)CC(=O)O1 [Epothilone A, epothilone A]	significantly higher activity
